The record followed here is patent publication US9789082B2, “Somatostatin receptor subtype 4 (SSTR4) agonists” (Centrexion Therapeutics Corporation, priority 2013, dated 2017).

Chain of human Somatostatin 4 receptor (SSTR4) (P31391 whole entry): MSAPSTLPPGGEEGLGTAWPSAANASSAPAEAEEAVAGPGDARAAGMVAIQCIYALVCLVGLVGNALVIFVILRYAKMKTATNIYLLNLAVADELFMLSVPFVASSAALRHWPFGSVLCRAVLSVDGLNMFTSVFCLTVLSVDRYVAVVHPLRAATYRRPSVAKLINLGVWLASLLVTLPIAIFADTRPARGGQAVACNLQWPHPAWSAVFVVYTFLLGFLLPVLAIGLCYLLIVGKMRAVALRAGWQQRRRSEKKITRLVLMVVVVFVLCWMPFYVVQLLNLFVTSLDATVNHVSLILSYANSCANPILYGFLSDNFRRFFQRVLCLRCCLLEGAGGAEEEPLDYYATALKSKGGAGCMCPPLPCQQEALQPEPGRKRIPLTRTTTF

The assay concerns the target human Somatostatin 4 receptor (SSTR4) (Homo sapiens (Human), UniProt P31391). As to the kind of experiment: cAMP assay with human somatostatin 4 receptor (hSSTR4 expressing H4 cells). The settings on record: cAMP assay, read-out: SSTR4 agonism EC50. The class given is cell-based. How it is done: Camp Assay Method Description for cAMP Assay with Human Somatostatin 4 Receptor
The activation of the SSTR4 receptor (Gi coupled) causes an inhibition of intracellular cAMP after stimulation with Forskolin, which can be quantifiable by use of a suitable assay Kit and an adequate plate reader. This technique is used to characterize pharmacological effects of the SSTR4 receptor agonists by use of hSSTR4 expressing H4 cells.
Compounds are dissolved and diluted in DMSO. The final test solution contains 1% DMSO. […] Cells are centrifuged and suspended in assay buffer (incl. 1:100 diluted Alexa antibody).
For the assay 5 μl of a cell suspension (approximately 5000 cells/well)—incl. Alexa antibody (diluted 1:100) are added into a 384 well MTP microtitre plate excepting one row or column (depending on the plate layout), which is reserved for the standard curve. Then 2 μl of compound sample is added as concentration response curve (e.g. 1e-5 M to 6e-10 M), usually in triplicates. Each assay contains incubations with vehicle controls instead of compound as controls for non-inhibited cAMP generation (100% CTL; ‘high values’) and incubations with 1 μM Somatosatin as controls for full inhibition and background (0% CTL; […]). […] Then the plates are shaken briefly and incubated for 60 min at room temperature. After 60 min 10 μl of the detection mix is added into all wells followed by an additional incubation period of 1 h. The plates are read in a suitable plate reader.
From this ratio, cAMP concentrations are calculated from standard curve and the EC50 is estimated by least square curve fit program.
The EC50 values were obtained with the aid of the above described cAMP ASSAY.
A general note: Cyclic AMP is a second messenger, typically raised through Gs and lowered through Gi signalling.
Regarding `CC(NC(=O)[C@H]1[C@@H]2CNC[C@@H]21)c1nn(C)c2ccccc12` (single isomer, unassigned) [Example 112], the EC50 (commonly the midpoint of the concentration-response curve) was 119 nM. As to `CC(NC(=O)[C@H]1[C@@H]2CNC[C@@H]21)c1nn(C)c2c(Cl)cccc12` (single isomer, unassigned) [Example 115], the EC50 came out at 21.3 nM. The value for `Cc1cccc2c(C(C)NC(=O)[C@H]3[C@@H]4CNC[C@@H]43)nn(C)c12` (single isomer, unassigned) [Example 118] was 39.2 nM; that for `Cc1nc(C(C)NC(=O)[C@H]2[C@@H]3CNC[C@@H]32)c2ccccc2n1` (single isomer, unassigned) [Example 163] was 338 nM; that for `Cc1nc(C(C)NC(=O)[C@H]2[C@@H]3CNC[C@@H]32)c2ccccc2n1` (single isomer, unassigned) [Example 164] was 6660 nM. Then `Cc1nc(C(C)NC(=O)[C@H]2[C@@H]3CNC[C@@H]32)c2cccc(C)c2n1` (single isomer, unassigned) [Example 165], with 88.8 nM.

Turning to `Cc1nc(C(C)NC(=O)[C@H]2[C@@H]3CNC[C@@H]32)c2cccc(C)c2n1` (single isomer, unassigned) [Example 166], the EC50 came out at 1400 nM. Then `CC(C)(NC(=O)[C@H]1[C@@H]2CNC[C@@H]21)C1COc2ccccc21` (single isomer, unassigned) [Example 174], with 100 nM; and `CC(C)(NC(=O)[C@H]1[C@@H]2CNC[C@@H]21)C1COc2ccccc21` (single isomer, unassigned) [Example 175], with 1000 nM; and `CC(C)(NC(=O)[C@H]1[C@@H]2CNC[C@@H]21)C1CCOc2ccccc21` (single isomer, unassigned) [Example 179], with 10.3 nM. The value for `CC(C)(NC(=O)[C@H]1[C@@H]2CNC[C@@H]21)C1CCOc2ccccc21` (single isomer, unassigned) [Example 180] was 400 nM; that for `Cc1cc(I)ccc1OCC1(NC(=O)[C@H]2[C@@H]3CNC[C@@H]32)CC1` [Example 1] was 238 nM. Then `CC(C)(NC(=O)[C@H]1[C@@H]2CNC[C@@H]21)c1ccccc1` [Example 3], with 179 nM; and `CC(C)(CCc1ccccc1)NC(=O)[C@H]1[C@@H]2CNC[C@@H]21` [Example 4], with 315 nM.

Regarding `CC(C)(Cc1cccc2ccccc12)NC(=O)[C@H]1[C@@H]2CNC[C@@H]21` [Example 5], the EC50 came to 26.6 nM.

For the compound `Cc1ccccc1CC(C)(C)NC(=O)[C@H]1[C@@H]2CNC[C@@H]21` [Example 6], the EC50 came to 59.6 nM. Then `CC(C)(NC(=O)[C@H]1[C@@H]2CNC[C@@H]21)C1CCCCC1` [Example 7], with 435 nM; and `O=C(NC1(c2ccccc2)CCCCC1)[C@H]1[C@@H]2CNC[C@@H]21` [Example 9], with 536 nM. The value for `Cc1cc(Br)ccc1OCC(C)(C)NC(=O)[C@H]1[C@@H]2CNC[C@@H]21` [Example 14] was 7.2 nM; that for `Cc1cc(C(F)(F)F)ccc1OCC(C)(C)NC(=O)[C@H]1[C@@H]2CNC[C@@H]21` [Example 19] was 141 nM; that for `CC(C)(NC(=O)[C@H]1[C@@H]2CNC[C@@H]21)c1cc2ccccc2cn1` [Example 26] was 46.5 nM. With `Cc1csc(C(C)(C)NC(=O)[C@H]2[C@@H]3CNC[C@@H]32)n1` [Example 27], the EC50 turned out to be 285 nM. Turning to `CC(C)(CCc1ncccc1C(F)(F)F)NC(=O)[C@H]1[C@@H]2CNC[C@@H]21` [Example 29], the concentration giving a half-maximal response (EC50) was determined as 60.4 nM. For `Cc1cccnc1CCC(C)(C)NC(=O)[C@H]1[C@@H]2CNC[C@@H]21` [Example 30], the EC50 amounted to 202 nM. `CC(C)(NC(=O)[C@H]1[C@@H]2CNC[C@@H]21)c1ccc2ccccc2n1` [Example 34]: the EC50 amounted to 41.1 nM.

With `Cn1nc(C(C)(C)NC(=O)[C@H]2[C@@H]3CNC[C@@H]32)c2ncccc21` [Example 35], the EC50 is 376 nM.

Take `CC(C)(COc1ccncc1C(F)(F)F)NC(=O)[C@H]1[C@@H]2CNC[C@@H]21` [Example 36]: the EC50 was determined as 21.8 nM. The value for `Cc1nccnc1OCC(C)(C)NC(=O)[C@H]1[C@@H]2CNC[C@@H]21` [Example 37] was 162 nM. The value for `CC(C)(COc1ccccc1F)NC(=O)[C@H]1[C@@H]2CNC[C@@H]21` [Example 41] was 194 nM; that for `CC(C)(NC(=O)[C@H]1[C@@H]2CNC[C@@H]21)c1cnc2cccnn12` [Example 46] was 241 nM. Take `CC(C)(NC(=O)[C@H]1[C@@H]2CNC[C@@H]21)c1nn(Cc2ccccc2)c2ccccc12` [Example 50]: the EC50 worked out at 8.4 nM. Then `CC(C)(COc1ccnc2ccccc12)NC(=O)[C@H]1[C@@H]2CNC[C@@H]21` [Example 54], with 66.6 nM.

Consider `CC(C)(COc1cncc2ccccc12)NC(=O)[C@H]1[C@@H]2CNC[C@@H]21` [Example 55], for which the EC50 turned out to be 30.9 nM. The value for `CC(C)(COc1cccn2ccnc12)NC(=O)[C@H]1[C@@H]2CNC[C@@H]21` [Example 61] was 1090 nM. Then `CC(C)(COc1noc2ccccc12)NC(=O)[C@H]1[C@@H]2CNC[C@@H]21` [Example 62], with 207 nM. The value for `Cc1cncnc1OCC(C)(C)NC(=O)[C@H]1[C@@H]2CNC[C@@H]21` [Example 66] was 142 nM; that for `CC(C)(NC(=O)[C@H]1[C@@H]2CNC[C@@H]21)c1ncc2ccncn12` [Example 69] was 749 nM. Take `Cc1ccccc1OCC(C)(C)NC(=O)[C@H]1[C@@H]2CN(C(C)C)C[C@@H]21` [Example 72]: the EC50 was 362 nM. The value for `Cn1nc(C(C)(C)NC(=O)[C@H]2[C@@H]3CNC[C@@H]32)c2cc(F)ccc21` [Example 73] was 11.9 nM; that for `CC(C)(NC(=O)[C@H]1[C@@H]2CNC[C@@H]21)c1c(Cl)nc2sccn12` [Example 81] was 143 nM; that for `CC(C)(NC(=O)[C@H]1[C@@H]2CNC[C@@H]21)c1cn2ccccc2n1` [Example 84] was 840 nM. As to `CC(C)(NC(=O)[C@H]1[C@@H]2CNC[C@@H]21)c1ccn2ccnc2c1` [Example 85], the EC50 turned out to be 144 nM. As for `CC(C)(NC(=O)[C@H]1[C@@H]2CNC[C@@H]21)c1ccc2nccn2c1` [Example 86], the EC50 is 93.9 nM.

In the case of `CC(C)(NC(=O)[C@H]1[C@@H]2CNC[C@@H]21)c1nn(CC(F)(F)F)c2ccccc12` [Example 96], the EC50 was determined as 9.2 nM. As for `CC(C)(NC(=O)[C@H]1[C@@H]2CNC[C@@H]21)c1nn(CC2CC2)c2ccccc12` [Example 97], the EC50 is 12.4 nM. Then `CC(C)n1nc(C(C)(C)NC(=O)[C@H]2[C@@H]3CNC[C@@H]32)c2ccccc21` [Example 98], with 19.9 nM; and `CC(C)(NC(=O)[C@H]1[C@@H]2CNC[C@@H]21)c1nn(C2CCOCC2)c2ccccc12` [Example 99], with 102 nM. Then `Cc1cccc2c(C(C)NC(=O)[C@H]3[C@@H]4CNC[C@@H]43)nn(C)c12` (stereo partly drawn) [Example 117], with 6.1 nM; and `CC(C)(NC(=O)[C@H]1[C@@H]2CNC[C@@H]21)c1ncc2ccc(C(F)(F)F)cn12` [Example 121], with 61.5 nM. Then `CC(C)(NC(=O)[C@H]1[C@@H]2CNC[C@@H]21)c1ncc2cc(C(F)(F)F)ccn12` [Example 122], with 1340 nM; and `CC(C)(NC(=O)[C@H]1[C@@H]2CNC[C@@H]21)c1nc(Br)c2ccccn12` [Example 123], with 1.5 nM. Take `CC(C)(NC(=O)[C@H]1[C@@H]2CNC[C@@H]21)c1ncc2c(C(F)(F)F)cccn12` [Example 124]: the EC50 is 15.4 nM. Turning to `CC(C)(NC(=O)[C@H]1[C@@H]2CNC[C@@H]21)c1nc(C2=CCOCC2)c2ccccn12` [Example 125], the EC50 stood at 97.6 nM. Then `CC(C)(NC(=O)[C@H]1[C@@H]2CNC[C@@H]21)c1nc(C(F)(F)F)c2c(F)cccn12` [Example 127], with 31.9 nM. The value for `CC(C)(NC(=O)[C@H]1[C@@H]2CNC[C@@H]21)c1ncc2cnccn12` [Example 131] was 484 nM; that for `CC(C)(NC(=O)[C@H]1[C@@H]2CNC[C@@H]21)c1nc(C#N)c2ccccn12` [Example 132] was 72.3 nM; that for `CC(C)(NC(=O)[C@H]1[C@@H]2CNC[C@@H]21)c1ncc2cccc(F)n12` [Example 135] was 7.6 nM. The value for `CC(C)(NC(=O)[C@H]1[C@@H]2CNC[C@@H]21)c1ncc2ccc(F)cn12` [Example 136] was 6.4 nM. `Cc1cc2c(C)nccc2c(C(C)(C)NC(=O)[C@H]2[C@@H]3CNC[C@@H]32)n1` [Example 144]: the EC50 was 47.7 nM. Then `Cc1nc2ccccn2c1C(C)(C)NC(=O)[C@H]1[C@@H]2CNC[C@@H]21` [Example 147], with 13.3 nM.
